These results are taken from patent publication US20240150755A1, “MODULATING REGULATORY T CELL FUNCTION IN AUTOIMMUNE DISEASE AND CANCER” (Salk Institute for Biological Studies, priority 2021, published 2024).

One data set deals with H3K27ac. The experiment in a line: H3K27ac ChIP-seq in Treg cells. Format: cell-based, mouse. The following applies: sgRNA transduced Treg cells. How it is done: Treg cells were collected and cross-linked first in 3 mM disuccinimidyl glutarate (DSG) in 1×PBS for thirty minutes then in 1% formaldehyde for another ten minutes, both at RT, for chromatin binding protein ChIP or in 1% formaldehyde only for histone modification ChIP. After quenching the excess cross-linker with a final concentration of 125 mM glycine, the cells were washed in 1× PBS, pelleted, flash-frozen in liquid nitrogen, and stored at −80° C. Cell pellets were thawed on ice and incubated in lysis solution (50 mM HEPES-KOH pH 8, 140 mM NaCl, 1 mM EDTA, 10% glycerol, 0.5% NP40, 0.25% Triton X-100) for ten minutes. The isolated nuclei were washed with wash solution (10 mM Tris-HCl pH 8, 1 mM EDTA, 0.5 mM EGTA, 200 mM NaCl) and shearing buffer (0.1% SDS, 1 mM EDTA, 10 mM Tris-HCl pH 8) then sheared in a Covaris® E229 sonicator for ten minutes to generate DNA fragments between ˜200-1000 base pairs (bp). After clarification of insoluble material by centrifugation, the chromatin was immunoprecipitated overnight at 4° C. with antibodies against Foxp3, Smarca4, Brd9, Phf10 or H3K27ac. […]
Single-end 50 bp or paired-end 42 bp reads were aligned to mouse genome mm10 using STAR alignment tool (V2.5) (Dobin et al., Bioinformatics 29:15-21, 2013). […]

In another data set the test system is Foxp3-bound sites. The experiment in a line: Foxp3 ChIP-seq in Treg cells. The data set is classed as cell-based, mouse. An excerpt:
For large scale Treg culture, Tregs were first expanded in Rosa-Cas9/Foxp3^Thy1.1 mice by injecting IL-2:IL-2 antibody immune complex according protocol described in Webster et. al (J Exp Med 206, 751-760, 2009). Spleen and lymph node Treg cells were labeled with PE-conjugated Thy1.1 antibody and isolated by magnetic selection using anti-PE microbeads (Mitenyl #130-048-801). All isolated Treg cells were activated by plate bound anti-CD3 and anti-CD28 antibodies and cultured with X-VIVO® 20 media (LONZA #04-448Q) supplemented by 1× Pen/Strep, 1× Sodium pyruvate, 1× HEPES, 1× GlutaMax™, 55 μM beta-mercaptoethanol in the presence of IL-2 at 500 units/mL. For experiments with Brd9 degradation, Treg cells were treated at day 0 with 2.5 μM dBRD9 (Tocris #6606) and cultured for four days for RNA- and ChIP-seq and 0.16-10 μM treated at day 0 and cultured dBRD9 for four days for Foxp3 MFI, cell viability and cell proliferation assays. Live cells were enriched by Ficoll-Paque® 1.084 (GE Health 17-5446-02) for RNA-seq and ChIP-seq.
Treg cells were collected and cross-linked first in 3 mM disuccinimidyl glutarate (DSG) in 1×PBS for thirty minutes then in 1% formaldehyde for another ten minutes, both at RT, for chromatin binding protein ChIP or in 1% formaldehyde only for histone modification ChIP. After quenching the excess cross-linker with a final concentration of 125 mM glycine, the cells were washed in 1× PBS, pelleted, flash-frozen in liquid nitrogen, and stored at −80° C. Cell pellets were thawed on ice and incubated in lysis solution (50 mM HEPES-KOH pH 8, 140 mM NaCl, 1 mM EDTA, 10% glycerol, 0.5% NP40, 0.25% Triton X-100) for ten minutes. The isolated nuclei were washed with wash solution (10 mM Tris-HCl pH 8, 1 mM EDTA, 0.5 mM EGTA, 200 mM NaCl) and shearing buffer (0.1% SDS, 1 mM EDTA, 10 mM Tris-HCl pH 8) then sheared in a Covaris® E229 sonicator for ten minutes to generate DNA fragments between ˜200-1000 base pairs (bp). After clarification of insoluble material by centrifugation, the chromatin was immunoprecipitated overnight at 4° C. with antibodies against Foxp3, Smarca4, Brd9, Phf10 or H3K27ac. The next day, the antibody bound DNA was incubated with Protein A+G Dynabeads™ (Invitrogen) in ChIP buffer (50 mM HEPES-KOH pH 7.5, 300 mM NaCl, 1 mM EDTA, 1% Triton X-100, 0.1% DOC, 0.1% SDS), washed and treated with Proteinase K and RNase A. Cross-linking was reversed by incubation at 55° C. for two and a half hours. Purified ChIP DNA was used for library generation (NuGen Ovation® Ultralow Library System V2) according to manufacturer's instructions for subsequent sequencing.
Single-end 50 bp or paired-end 42 bp reads were aligned to mouse genome mm10 using STAR alignment tool (V2.5) (Dobin et al., Bioinformatics 29:15-21, 2013). ChIP-Seq peaks were called using findPeaks within HOMER using parameters for histone (-style histone) or transcription factor (-style factor) (homer.ucsd.edu/homer/index.html). Peaks were called when enriched >two-fold over input and >four-fold over local tag counts, with FDR 0.001. For histone ChIP, peaks within a 1000 bp range were stitched together to form regions. Differential ChIP peaks were found by merging peaks from control and experiment groups and called using getDiffExpression.pl with fold change ≥1.5 or ≤−1.5, Poisson p value<0.0001.

A further data set has as its system Rag1^−/− mice. The experiment in a line: Adoptive T cell transfer-induced colitis model. Format: in vivo, mouse. An excerpt: Treg cells were transduced by retrovirus expressing sgRNA targeting gene of interest, and cultured in X-VIVO® complete media and IL-2 (500 U/ml). Four days after transduction, the NGFR^+ transduced Treg cells were FACS sorted before transferred into recipient mice. To induce colitis, 2 million effector T cells (CD45.1^+CD4^+CD25^−CD45RB^hi) and 1 million sgRNA transduced Treg cells (CD45.2^+ CD4^+ Thy1.1^+ NGFR^+) were mixed together and transferred into Rag1^−/− recipient mice. The body weight of recipient mice was monitored weekly for signs of wasting symptoms. Mice were harvested 7 weeks after T cell transfer. Spleens were used for profiling immune cell populations by FACS. Colons were collected for histopathological analysis.
Histopathological analysis was performed in a blinded manner and scored using the following criteria: eight parameters were used, including (i) the degree of inflammatory infiltrate in the LP (0-3); (ii) Goblet cell loss (0-2); (iii) reactive epithelial hyperplasia/atypia with nuclear changes (0-3); (iv) the number of IELs in the epithelial crypts (0-3); (v) abnormal crypt architecture (distortion, branching, atrophy, crypt loss) (0-3); (vi) number of crypt abscesses (0-2); (vii) mucosal erosion to frank ulcerations (0-2) and (viii) submucosal spread to transmural involvement (0-2). The severity of lesion was scored independently in 3 regions (proximal, middle and distal colon) over a maximal score of 20. The overall colitis score was based as the average of each regional score (maximal score of 20).

The subject of data set [1] is MC38 colorectal tumor cell line. The experiment in a line: Adoptive T cell transfer and MC38 tumor model. The data set is classed as in vivo, mouse. An excerpt:
Similar to the “Adoptive T cells transfer-induced colitis model,” Treg cells were activated in vitro and transduced with pSIRG-GFP expressing sgNT or sgBrd9. Four days after transduction, the GFP+ transduced Treg were FACS sorted. Concurrently, Treg depleted CD4 and CD8 T cells isolated from Rosa-Cas9/Foxp3^Thy1.1 mice were used as effector T cells. A total of 1 million pSIRG-sgRNA transduced GFP+ Treg cells, 1 million effector CD8 T cells, and 2 million Treg-depleted CD4 T cells were mixed and transferred into Rag1^−/− recipient mice. On the following day, mice were implanted with 0.5 million MC38 cells by subcutaneous injection on the flank of mouse. When palpable tumor appeared, tumor size was measured every two day by electronic calipers. At the end point, spleen and tumor were collected for immune profiling. For tumor processing, tumor tissues were minced into small pieces and digested with 0.5 mg/mL Collagenase IV (Sigma #C5138) and DNAase I (Roche #4716728001) for 20 minutes and passed through […] cell strainer to collect single cell suspension. Isolated cells were stimulated with PMA/Ionomycin and GolgiPlug™ for 5 hours, and then were subjected to Foxp3 and cytokines staining with eBioscience® Fix/Perm buffer (eBioscience #00-5523-00).

Setting [2] is: transferred Treg population, vs sgNT.

For “sgBrd9: sgRNA targeting Brd9, ATTAACCGGTTTCTCCCGGG (SEQ ID NO: 12) (expressed or natural sequence)”, the “H3K27ac at Brd9-dependent Foxp3 sites” value in the data set on H3K27ac was “reduction in H3K27ac”. Further, the “Brd9-dependent sites where binding was not rescued by restoring Foxp3 expression” value with Foxp3-bound sites (sgBrd9 Treg cells plus ectopic Foxp3) is recorded as around 71%. Moreover, the “Foxp3 binding at CNS2/CNS0” value with Foxp3-bound sites (sgRNA transduced Treg cells) is on record as “marked reduction of Foxp3 binding at CNS2/CNS0”. The “Foxp3 binding with ectopic Foxp3 expression” value in the data set on Foxp3-bound sites (sgRNA transduced Treg cells plus MIGR-Foxp3) is on record as “partially restored Foxp3 binding”. The “Foxp3 binding at a subset of Foxp3 sites (Brd9-dependent sites)” value with Foxp3-bound sites (sgRNA transduced Treg cells, FC1.5, Poisson p<0.0001) is reported as “significantly reduced”. In addition, in the data set with Rag1^−/− mice (co-transfer of Teff and sgRNA transduced Treg cells into Rag1^−/− mice), the “protection of recipient mice from body weight loss” value was “failed to protect recipients from losing weight”. The “Foxp3^+ cell frequencies within the CD45.2^+CD4^+ transferred Treg population” value in the data set on Rag1^−/− mice (end point of colitis model) was “reduced Foxp3^+ cell frequencies”. For the same substance, the colitis pathology entry in the data set on Rag1^−/− mice (seven weeks after transfer, vs control Treg cells) is recorded as “significant colitis pathology”. The tumor growth entry in data set [1] (Rag1^−/− mice receiving sgRNA transduced Treg cells vs sgNT Treg cells) was “significantly slower”. Moreover, the “percentage of transferred Treg cells” value in data set [1] (relative to sgNT Treg cells) was “reduced”. Further, in data set [1] (setting [2]), the “GFP^+Foxp3^− ex-Treg population” value was “increase” and the “percentage of ex-Treg cells producing IFN-γ” value was “higher percentage”. Moreover, the “increase in the ratio of CD8 T cells to Treg cells” value in data set [1] (tumor and spleen, sgBrd9 versus sgNT) is on record as 2-3 fold. Also, the “CD4 and CD8 T cell tumor infiltration” value in data set [1] (vs sgNT Treg cells) is given as “significantly increased”. Further, the “percentage of IFN-γ producing intra-tumor CD4 and CD8 T cells” value in data set [1] (vs sgNT Treg condition) is recorded as “significantly greater”.
